Read-outs that look alike come from different tables or passages of the source.
System: HSP47
Conditions: for % of HSP47 expression in Stellate Cell, Conc siRNA 18 nM / % of HSP47 expression in Stellate Cell, Conc siRNA 75 nM / % of HSP47 expression in Stellate Cell, Conc siRNA 300 nM: Table 5, stellate cells; for % of HSP47 expression in Stellate Cell, Conc siRNA 18 nM / % of Expression at Dose (nM) 18 nM: siRNA 18 nM; for % of Expression at Dose (nM) 18 nM / % of Expression at Dose (nM) 75 nM / % of Expression at Dose (nM) 300 nM: rat stellate cells; for % of HSP47 expression in Stellate Cell, Conc siRNA 75 nM / % of Expression at Dose (nM) 75 nM: siRNA 75 nM; for % of HSP47 expression in Stellate Cell, Conc siRNA 300 nM / % of Expression at Dose (nM) 300 nM: siRNA 300 nM
Protocol: The in vitro activity for gene expression knockdown using an siRNA was measured using rat stellate cells in DMEM medium according to the following protocol: One day before the transfection, plate the cells in a 96-well plate at 3×10^3 cells per well for Stellate cells with 100 μl of medium containing 10% FBS and culture in a 37° C. incubator containing a humidified atmosphere of 5% CO2 in air. Before transfection, change medium to 90 μl of medium without antibiotics. Prepare the appropriate dilutions of the solution collected from the tubing in PBS buffer so that the addition of 10 μl into each well is sufficient to reach the desired concentration. 48 hours after transfection, wash the cells once with ice-cold PBS. Lyse the cells with 50 μl of Cell-to-Ct Lysis Buffer for 5-30 minutes at ambient temperature. Add 5 μl of Stop Solution and incubate for 2 minutes at ambient temperature. Measure mRNA level by qPCR with TAQMAN immediately. Alternatively, the samples can be frozen at −80° C. and assayed at later times. For qRT-PCR assay: Thaw all reagents on ice. Mix the pooled reagents in 0.2 ml PCR tubes. Dispense the set-up mixture into 384 well plate, 10 μl/well×3. Seal the plate with film, spin down mixture into the bottom of wells. Perform qRT-PCR assay.
In this example, an HSP47 siRNA was used to knockdown HSP47 gene. For TaqMan gene expression assays, HSP47 gene specific TaqMan probe was used.

Row | Compound | % of HSP47 expression in Stellate Cell, Conc siRNA 18 nM [%] | % of HSP47 expression in Stellate Cell, Conc siRNA 75 nM [%] | % of HSP47 expression in Stellate Cell, Conc siRNA 300 nM [%] | further results
1 | CCCCC/C=C\C/C=C\CCCCCCCCOC(=O)[C@H]1C[C@H](NCC(=O)CCC(=O)NCCCCC(NC(=O)CCC(=O)N[C@H]2C[C@H](C(=O)OCCCCCCCC/C=C\C/C=C\CCCCC)N(C(=O)CCCCCCC/C=C\C/C=C\CCCCC)C2)C(=O)NCCCOCCOCCOCCOCCOCCCNC(=O)C(CCCCNC(=O)CCC(=O)N[C@@H]2C[C@@H](C(=O)OCCCCCCCC/C=C\C/C=C\CCCCC)N(C(=O)CCCCCCC/C=C\C/C=C\CCCCC)C2)NC(=O)CCC(=O)N[C@@H]2C[C@@H](C(=O)OCCCCCCCC/C=C\C/C=C\CCCCC)N(C(=O)CCCCCCC/C=C\C/C=C\CCCCC)C2)CN1C(=O)CCCCCCC/C=C\C/C=C\CCCCC (stereo partly drawn) [Compound T10] | 11.1 | 4.2 | 1.9 | 
2 | CCCCCCCCCCCCCCCC(=O)OCCN(CCOC(=O)CCCCCCCCCCCCCCC)C(=O)CCCC(=O)NCCCC[C@H](NC(=O)CCCC(=O)N(CCOC(=O)CCCCCCCCCCCCCCC)CCOC(=O)CCCCCCCCCCCCCCC)C(=O)NCCCOCCOCCOCCCNC(=O)CCOCCOCCOCCOCCOCCC(=O)NCCCOCCOCCOCCCNC(=O)[C@H](CCCCNC(=O)CCCC(=O)N(CCOC(=O)CCCCCCCCCCCCCCC)CCOC(=O)CCCCCCCCCCCCCCC)NC(=O)CCCC(=O)N(CCOC(=O)CCCCCCCCCCCCCCC)CCOC(=O)CCCCCCCCCCCCCCC [Compound S6] |  |  |  | % of Expression at Dose (nM) 18 nM (Table 3): 97%; % of Expression at Dose (nM) 75 nM (Table 3): 80%; % of Expression at Dose (nM) 300 nM (Table 3): 33%
3 | CCCCC/C=C\C/C=C\CCCCCCCCOC(=O)[C@H](COC(=O)CCC(=O)NCCCCC(NC(=O)CCC(=O)OC[C@H](NC(=O)CCCCCCC/C=C\C/C=C\CCCCC)C(=O)OCCCCCCCC/C=C\C/C=C\CCCCC)C(=O)NCCCOCCOCCOCCOCCOCCCNC(=O)C(CCCNC(=O)CCC(=O)OC[C@@H](NC(=O)CCCCCCC/C=C\C/C=C\CCCCC)C(=O)OCCCCCCCC/C=C\C/C=C\CCCCC)NC(=O)CCC(=O)OC[C@@H](NC(=O)CCCCCCC/C=C\C/C=C\CCCCC)C(=O)OCCCCCCCC/C=C\C/C=C\CCCCC)NC(=O)CCCCCCC/C=C\C/C=C\CCCCC (stereo partly drawn) [Compound T12] | 40.2 | 8.4 | 2.7 | 
4 | CC/C=C\C/C=C\C/C=C\CCCCCCCC(=O)OCCN(CCOC(=O)CCCCCCC/C=C\C/C=C\C/C=C\CC)C(=O)CCC(=O)NCCCC[C@H](NC(=O)CCC(=O)N(CCOC(=O)CCCCCCC/C=C\C/C=C\C/C=C\CC)CCOC(=O)CCCCCCC/C=C\C/C=C\C/C=C\CC)C(=O)NCCCOCCOCCOCCOCCOCCCNC(=O)[C@H](CCCCNC(=O)CCC(=O)N(CCOC(=O)CCCCCCC/C=C\C/C=C\C/C=C\CC)CCOC(=O)CCCCCCC/C=C\C/C=C\C/C=C\CC)NC(=O)CCC(=O)N(CCOC(=O)CCCCCCC/C=C\C/C=C\C/C=C\CC)CCOC(=O)CCCCCCC/C=C\C/C=C\C/C=C\CC [Compound T8] |  |  |  | % of Expression at Dose (nM) 18 nM (Table 4): 29%; % of Expression at Dose (nM) 75 nM (Table 4): 9%; % of Expression at Dose (nM) 300 nM (Table 4): 8%
